target: human IRE-1α (GST-IRE-1α) (Homo sapiens (Human), UniProt O75460); assay: IRE-1α assay (cleavage of mini-XBP-1 mRNA stem-loop substrate); format: biochemical; conditions: average IC50 for inhibition of IRE-1α in vitro
Description: A fusion protein comprising glutathione S transferase (GST) and human IRE-1α (GST-IRE-1α) obtained from a 500 ml baculovirus-infected insect cell culture can be used to measure IRE-1α activity in vitro. Five μl of a reaction mixture comprising 1× reaction buffer (5× reaction buffer is 100 mM Hepes pH 7.5, 250 mM KOAc, 2.5 mM MgCl2), 3 mM DTT, and 0.4% polyethylene glycol water is added to each well of 384 well plates. Twenty-five nanoliters of a 1 mM test compound solution are added to test wells. […] Negative control wells contain only reaction mixture and test compound. After spinning the plates at 1200 rpm for 30 seconds, 3 μl of an IRE-1α human mini-XBP-1 mRNA stem-loop substrate [NT] ID NO:1), labeled with the fluorescent dye Cy5 at the [NT] end, are added to each well of a control plate. The plates are again spun at 1200 rpm for 30 seconds. […] The plates are covered with lids and incubated for one hour at 30° C. The plates are then transferred to an […] microplate reader. Data is analyzed using data analysis software, and the percent activity of IRE-1α is calculated.

Sequence of human IRE-1α (GST-IRE-1α) (O75460 19-977): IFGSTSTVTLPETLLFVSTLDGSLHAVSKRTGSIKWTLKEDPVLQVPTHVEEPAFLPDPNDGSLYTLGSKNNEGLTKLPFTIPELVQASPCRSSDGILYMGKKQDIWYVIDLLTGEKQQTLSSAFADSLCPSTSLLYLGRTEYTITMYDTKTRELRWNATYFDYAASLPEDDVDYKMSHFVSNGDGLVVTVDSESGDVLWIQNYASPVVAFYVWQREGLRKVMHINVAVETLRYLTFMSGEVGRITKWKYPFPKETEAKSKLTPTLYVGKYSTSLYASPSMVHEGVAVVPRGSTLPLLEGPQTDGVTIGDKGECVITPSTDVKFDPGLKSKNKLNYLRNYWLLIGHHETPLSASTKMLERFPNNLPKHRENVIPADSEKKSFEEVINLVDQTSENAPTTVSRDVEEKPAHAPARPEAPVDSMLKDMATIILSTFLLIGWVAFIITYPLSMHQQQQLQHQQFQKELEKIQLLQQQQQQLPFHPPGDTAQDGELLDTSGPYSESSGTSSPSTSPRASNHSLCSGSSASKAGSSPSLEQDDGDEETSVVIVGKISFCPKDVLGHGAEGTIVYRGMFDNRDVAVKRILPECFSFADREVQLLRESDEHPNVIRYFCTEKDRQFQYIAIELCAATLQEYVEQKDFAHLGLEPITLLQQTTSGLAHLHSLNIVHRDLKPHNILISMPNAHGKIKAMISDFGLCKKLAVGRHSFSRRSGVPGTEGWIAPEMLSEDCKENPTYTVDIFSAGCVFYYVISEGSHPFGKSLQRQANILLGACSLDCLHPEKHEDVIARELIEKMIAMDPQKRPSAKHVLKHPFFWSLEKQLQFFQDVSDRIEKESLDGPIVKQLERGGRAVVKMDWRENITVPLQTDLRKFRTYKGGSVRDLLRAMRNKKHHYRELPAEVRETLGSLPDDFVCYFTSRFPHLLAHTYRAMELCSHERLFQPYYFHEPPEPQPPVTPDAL

Structure (SMILES)	IC50
CNC(=O)C1CCN(c2ccc3ccc(O)c(C=O)c3c2)C1 (stereo not shown) [Compound 131]	> 1 µM
O=Cc1c(O)ccc2cc(-c3ccc(C(=O)N4CCCC4)nc3)ccc12 [Compound 124]	< 1 µM
CN1CCC(NC(=O)c2ccc(-c3ccc4c(C=O)c(O)ccc4c3)s2)C1 (stereo not shown) [Compound 79]	< 0.1 µM
CS(=O)(=O)NC1CCCN(c2ccc3c(C=O)c(O)ccc3c2)C1 (stereo not shown) [Compound 94]	> 1 µM
O=Cc1c(O)ccc2cc(N3CCN(Cc4cccnc4)CC3)ccc12 [Compound 100]	< 1 µM
CN(C)C(=O)C1CCN(c2ccc3ccc(O)c(C=O)c3c2)C1 (stereo not shown) [Compound 132]	> 1 µM
CN1CCN(C(=O)COc2ccc3c(C=O)c(O)ccc3c2)CC1 [Compound 165]	> 1 µM
CC(=O)NC1CCN(c2ccc3c(C=O)c(O)ccc3c2)C1 (stereo not shown) [Compound 154]	< 1 µM
O=Cc1c(O)ccc2cc(N3CCC(NCc4cccnc4)CC3)ccc12 [Compound 116]	> 1 µM
O=Cc1c(O)ccc2cc(-c3ccc(C(=O)NCC4CCNCC4)s3)ccc12 [Compound 43]	< 0.1 µM
CCCNC(=O)c1cccc(-c2ccc3c(C=O)c(O)ccc3c2)n1 [Compound 16]	< 0.1 µM
COCCNC(=O)c1sc(-c2ccc3c(C=O)c(O)ccc3c2)nc1C [Compound 141]	< 0.1 µM
Cc1nc(-c2ccc3c(C=O)c(O)ccc3c2)sc1C(=O)N1CCOCC1 [Compound 109]	< 0.1 µM
CN(C)C1CCN(c2ccc3ccc(O)c(C=O)c3c2)C1 (stereo not shown) [Compound 135]	> 1 µM
CNC(=O)C1CCN(c2ccc3c(C=O)c(O)ccc3c2)C1 (stereo not shown) [Compound 127]	< 1 µM
O=Cc1c(O)ccc2ccc(N3CCC(N4CCCCC4)C3)cc12 (stereo not shown) [Compound 137]	> 1 µM

Structure (SMILES)	IC50
Cc1cc(C(=O)N(C)C)sc1-c1ccc2c(C=O)c(O)ccc2c1 [Compound 33]	< 0.1 µM
O=Cc1c(O)ccc2cc(-c3ccc(C(=O)NCCCN4CCOCC4)s3)ccc12 [Compound 37]	< 0.1 µM
CN(C)CCCNC(=O)c1ccc(-c2ccc3c(C=O)c(O)ccc3c2)s1 [Compound 74]	< 1 µM
O=Cc1c(O)ccc2cc(N3CCOCC3)ccc12 [Compound 54]	> 1 µM
O=Cc1c(O)ccc2cc(CCC(=O)N3CCOCC3)ccc12 [Compound 52]	< 1 µM
CN1CCN(c2ncc(-c3ccc4c(C=O)c(O)ccc4c3)cn2)CC1 [Compound 80]	< 0.1 µM
CN1CCN(C(=O)C2CCN(c3ccc4c(C=O)c(O)ccc4c3)C2)CC1 (stereo not shown) [Compound 112]	< 1 µM
CCOC(=O)/C=C/c1ccc2c(C=O)c(O)ccc2c1 [Compound 22]	< 1 µM
Cc1nc(-c2ccc3c(C=O)c(O)ccc3c2)sc1C(=O)NC1CCNCC1 [Compound 144]	< 0.1 µM
COc1ccc(CNC(=O)c2cccc(-c3ccc4c(C=O)c(O)ccc4c3)n2)cc1 [Compound 17]	< 1 µM
O=Cc1c(O)ccc2ccc(OS(=O)(=O)C(F)(F)F)cc12 [Compound 177]	< 1 µM
O=Cc1c(O)ccc2cc(-c3ccc(C(=O)NC4CCNCC4)cc3)ccc12 [Compound 48]	< 0.1 µM
CNC(=O)c1cccc(-c2ccc3c(C=O)c(O)ccc3c2)n1 [Compound 13]	< 0.1 µM
COCCNC(=O)c1ccc(-c2ccc3c(C=O)c(O)ccc3c2)cc1 [Compound 170]	> 1 µM
O=Cc1c(O)ccc2cc(-c3ccc(C(=O)N4CCOCC4)cc3Cl)ccc12 [Compound 29]	< 1 µM
CN1CCN(C(=O)c2ccc(-c3ccc4c(C=O)c(O)ccc4c3)cn2)CC1 [Compound 50]	< 1 µM

tested on: IRE-1α-mediated XBP-1 splicing in human myeloma MM.1s cells; assay: Cellular XBP-1 splicing assay in myeloma cells (RT-PCR); format: cell-based; conditions: Homo sapiens, MM1.S; average EC50, endogenous XBP-1 splicing in myeloma cells, DTT stress
Description: After an additional 45 minutes (2 hours total) with compound and DTT, the cells are harvested with TRIZOL® (a mono-phasic solution of phenol and guanidine isothiocyanate), and total RNA is prepared as directed by the manufacturer (Invitrogen). Human XBP-1 is amplified by RT-PCR with the following primers, which flank the 26 base unconventional intron excised by IRE-1α:
RT-PCR of unstressed (U) cells then generates the upper band. When cells are stressed (S) with the endoplasmic reticulum (ER) stressing agent DTT, IRE-1α is activated due to accumulating unfolded protein and the resulting RT-PCR product is 26 base pairs shorter.
Compounds which pass specificity assays are assayed for cellular EC50 using endogenous XBP-1 splicing in myeloma cells. XBP-1 is regulated through the excision of a 26 nucleotide intron from the XBP-1 mRNA by the highly specific endoribonuclease activity of IRE-1α. […] This splicing event is used to measure IRE-1α activity on XBP-1 mRNA in cells and tissues.
Briefly, compounds are incubated in the presence or absence of an ER stress agent (e.g., DTT), and the ratio of XBP-1u (unspliced) to XBP-1s (spliced) is quantified by RT-PCR.

Structure (SMILES)	EC50
CNC(=O)C1CCN(c2ccc3ccc(O)c(C=O)c3c2)C1 (stereo not shown) [Compound 131]	> 10 µM
O=Cc1c(O)ccc2cc(-c3ccc(C(=O)N4CCCC4)nc3)ccc12 [Compound 124]	< 10 µM
CN1CCC(NC(=O)c2ccc(-c3ccc4c(C=O)c(O)ccc4c3)s2)C1 (stereo not shown) [Compound 79]	< 10 µM
CS(=O)(=O)NC1CCCN(c2ccc3c(C=O)c(O)ccc3c2)C1 (stereo not shown) [Compound 94]	> 10 µM
O=Cc1c(O)ccc2cc(N3CCN(Cc4cccnc4)CC3)ccc12 [Compound 100]	> 10 µM
CN(C)C(=O)C1CCN(c2ccc3ccc(O)c(C=O)c3c2)C1 (stereo not shown) [Compound 132]	> 10 µM
CC(=O)NC1CCN(c2ccc3c(C=O)c(O)ccc3c2)C1 (stereo not shown) [Compound 154]	< 10 µM
O=Cc1c(O)ccc2cc(N3CCC(NCc4cccnc4)CC3)ccc12 [Compound 116]	< 10 µM
O=Cc1c(O)ccc2cc(-c3ccc(C(=O)NCC4CCNCC4)s3)ccc12 [Compound 43]	< 10 µM
CCCNC(=O)c1cccc(-c2ccc3c(C=O)c(O)ccc3c2)n1 [Compound 16]	10 µM
COCCNC(=O)c1sc(-c2ccc3c(C=O)c(O)ccc3c2)nc1C [Compound 141]	< 10 µM
Cc1nc(-c2ccc3c(C=O)c(O)ccc3c2)sc1C(=O)N1CCOCC1 [Compound 109]	< 10 µM
CN(C)C1CCN(c2ccc3ccc(O)c(C=O)c3c2)C1 (stereo not shown) [Compound 135]	> 10 µM
CNC(=O)C1CCN(c2ccc3c(C=O)c(O)ccc3c2)C1 (stereo not shown) [Compound 127]	> 10 µM
O=Cc1c(O)ccc2ccc(N3CCC(N4CCCCC4)C3)cc12 (stereo not shown) [Compound 137]	> 10 µM
Cc1cc(C(=O)N(C)C)sc1-c1ccc2c(C=O)c(O)ccc2c1 [Compound 33]	< 10 µM
O=Cc1c(O)ccc2cc(-c3ccc(C(=O)NCCCN4CCOCC4)s3)ccc12 [Compound 37]	< 10 µM
CN(C)CCCNC(=O)c1ccc(-c2ccc3c(C=O)c(O)ccc3c2)s1 [Compound 74]	> 10 µM
O=Cc1c(O)ccc2cc(N3CCOCC3)ccc12 [Compound 54]	> 10 µM
O=Cc1c(O)ccc2cc(CCC(=O)N3CCOCC3)ccc12 [Compound 52]	< 10 µM
CN1CCN(c2ncc(-c3ccc4c(C=O)c(O)ccc4c3)cn2)CC1 [Compound 80]	< 10 µM
CN1CCN(C(=O)C2CCN(c3ccc4c(C=O)c(O)ccc4c3)C2)CC1 (stereo not shown) [Compound 112]	< 10 µM
CCOC(=O)/C=C/c1ccc2c(C=O)c(O)ccc2c1 [Compound 22]	< 10 µM
Cc1nc(-c2ccc3c(C=O)c(O)ccc3c2)sc1C(=O)NC1CCNCC1 [Compound 144]	< 10 µM
COc1ccc(CNC(=O)c2cccc(-c3ccc4c(C=O)c(O)ccc4c3)n2)cc1 [Compound 17]	> 10 µM
O=Cc1c(O)ccc2ccc(OS(=O)(=O)C(F)(F)F)cc12 [Compound 177]	> 10 µM
O=Cc1c(O)ccc2cc(-c3ccc(C(=O)NC4CCNCC4)cc3)ccc12 [Compound 48]	< 10 µM
CNC(=O)c1cccc(-c2ccc3c(C=O)c(O)ccc3c2)n1 [Compound 13]	> 10 µM
O=Cc1c(O)ccc2cc(-c3ccc(C(=O)N4CCOCC4)cc3Cl)ccc12 [Compound 29]	> 10 µM
CN1CCN(C(=O)c2ccc(-c3ccc4c(C=O)c(O)ccc4c3)cn2)CC1 [Compound 50]	< 10 µM

same assay, conditions: average EC50, endogenous XBP-1 splicing in myeloma cells, DTT stress

Structure (SMILES)	EC50
CN1CCN(C(=O)COc2ccc3c(C=O)c(O)ccc3c2)CC1 [Compound 165]	> 10 µM
COCCNC(=O)c1ccc(-c2ccc3c(C=O)c(O)ccc3c2)cc1 [Compound 170]	< 10 µM

tested on: XBP-1 splicing; assay: XBP-1 splicing in vivo in a model of ER stress (tunicamycin-treated SCID mice); design: species or system mouse; conditions: tunicamycin 1 mg/kg IP, 100, 50 or 25 mg/kg orally, 2 hour exposure, RT-PCR, kidney
Description: SCID mice were treated with tunicamycin 1 mg/kg IP. Compound no. 12-4 was administered orally two hours later at one of three doses: 100 mg/kg, 50 mg/kg, or 25 mg/kg (2 hour exposure) in 10% hydroxypropyl-beta-cyclodextrin (HPBCD). The total exposure to tunicamycin was 4 hours, and the total exposure to compound 12-4 was 2 hours.
Livers and kidneys were harvested and total RNA was prepared using Trizol. RT-PCR was performed using murine specific XBP1 primers flanking the 26-nt intron and products were separated on 4% agarose gel. The results are shown in FIG. 1B (liver) and FIG. 1C, in which each lane represents an individual mouse (n=4).

Structure (SMILES)	inhibition of XBP-1 splicing in kidney
Cc1nc(-c2ccc3c(C=O)c(O)ccc3c2)sc1C(=O)N1CCN(C)CC1 [Compound 12-4]	dose-dependent inhibition

same assay, conditions: tunicamycin 1 mg/kg IP, 100, 50 or 25 mg/kg orally, 2 hour exposure, RT-PCR, liver

Structure (SMILES)	inhibition of XBP-1 splicing in liver
Cc1nc(-c2ccc3c(C=O)c(O)ccc3c2)sc1C(=O)N1CCN(C)CC1 [Compound 12-4]	dose-dependent inhibition

tested on: human myeloma RPMI8226 tumor xenografts; assay: RPMI8226 xenograft efficacy model; format: in vivo, mouse; conditions: SCID mice bearing RPMI8226 xenografts, 0.75 mg/kg IV twice weekly
Description: SCID mice are implanted with tumor cells (human RPMI8226 myeloma cells) via IP, IV or SC routes based on the results from the xenograft model development studies (above). Mice are treated with compound or mock treated (vehicle) for a period of up to 4-5 weeks. Compound administration can be via IV, IP, PO or SC routes. In some cases, tunicamycin is administered via IP injection in order to stimulate stress in the animal. This stress mimics the stress an animal may undergo during times of tumor growth. The tunicaymycin injection mimics tumor growth during times of stress and permits evaluation of biomarkers which indicate the effectiveness of a compound (such as XBP-1 splicing) by RT-PCR, immunohistochemistry, or Western blots.
Mice are monitored for tumor growth, regression and general health. Tumors are collected and characterized by immunohistochemistry and/or FACS analysis. Tumor growth is measured by calipers, ultrasound, or by abdominal lavage. Biomarkers in the blood or tumor can evaluated (primarily XBP-1 splicing).
Tumor cells are cultured and injected IP, IV (tail vein) or SC (flank) in the mouse using a 21G needle in a volume of approx 100 μL. Mice are treated with compounds or vehicle alone as a control by IV, IP, SC or PO routes 5 days per week for up to 4-5 weeks. Blood is collected via retroorbital bleed (100 μA) at 2 time points (different eyes). […]

Structure (SMILES)	tumor growth
CC(C)C[C@H](NC(=O)[C@H](Cc1ccccc1)NC(=O)c1cnccn1)B(O)O [bortezomib]	suppression of tumor growth

Source: patent US9493435B2, “IRE-1α inhibitors” (MannKing Corporation, priority 2009, dated 2016)
